Experimental data taken from patent US20250129078A1, “ERBB2 INHIBITORS” (Cogent Biosciences, Inc., priority 2023, published 2025).

target: EGFR WT (Homo sapiens (Human), UniProt P00533); experiment: ErbB enzyme assay (CisBio HTRF-KinEASE-TK), EGFR WT; assay type: biochemical; settings: ATP at Km (25 μM), 1 h incubation
Procedure, shortened: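 Potency comes from a homogeneous time-resolved fluorescence kinase format measuring tyrosine substrate phosphorylation. Reactions and detection steps each run 1 h at ambient temperature. IC50 values are interpolated from 4-parameter logistic fits of percent-of-control data.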

Sequence of EGFR WT (P00533 25-1210): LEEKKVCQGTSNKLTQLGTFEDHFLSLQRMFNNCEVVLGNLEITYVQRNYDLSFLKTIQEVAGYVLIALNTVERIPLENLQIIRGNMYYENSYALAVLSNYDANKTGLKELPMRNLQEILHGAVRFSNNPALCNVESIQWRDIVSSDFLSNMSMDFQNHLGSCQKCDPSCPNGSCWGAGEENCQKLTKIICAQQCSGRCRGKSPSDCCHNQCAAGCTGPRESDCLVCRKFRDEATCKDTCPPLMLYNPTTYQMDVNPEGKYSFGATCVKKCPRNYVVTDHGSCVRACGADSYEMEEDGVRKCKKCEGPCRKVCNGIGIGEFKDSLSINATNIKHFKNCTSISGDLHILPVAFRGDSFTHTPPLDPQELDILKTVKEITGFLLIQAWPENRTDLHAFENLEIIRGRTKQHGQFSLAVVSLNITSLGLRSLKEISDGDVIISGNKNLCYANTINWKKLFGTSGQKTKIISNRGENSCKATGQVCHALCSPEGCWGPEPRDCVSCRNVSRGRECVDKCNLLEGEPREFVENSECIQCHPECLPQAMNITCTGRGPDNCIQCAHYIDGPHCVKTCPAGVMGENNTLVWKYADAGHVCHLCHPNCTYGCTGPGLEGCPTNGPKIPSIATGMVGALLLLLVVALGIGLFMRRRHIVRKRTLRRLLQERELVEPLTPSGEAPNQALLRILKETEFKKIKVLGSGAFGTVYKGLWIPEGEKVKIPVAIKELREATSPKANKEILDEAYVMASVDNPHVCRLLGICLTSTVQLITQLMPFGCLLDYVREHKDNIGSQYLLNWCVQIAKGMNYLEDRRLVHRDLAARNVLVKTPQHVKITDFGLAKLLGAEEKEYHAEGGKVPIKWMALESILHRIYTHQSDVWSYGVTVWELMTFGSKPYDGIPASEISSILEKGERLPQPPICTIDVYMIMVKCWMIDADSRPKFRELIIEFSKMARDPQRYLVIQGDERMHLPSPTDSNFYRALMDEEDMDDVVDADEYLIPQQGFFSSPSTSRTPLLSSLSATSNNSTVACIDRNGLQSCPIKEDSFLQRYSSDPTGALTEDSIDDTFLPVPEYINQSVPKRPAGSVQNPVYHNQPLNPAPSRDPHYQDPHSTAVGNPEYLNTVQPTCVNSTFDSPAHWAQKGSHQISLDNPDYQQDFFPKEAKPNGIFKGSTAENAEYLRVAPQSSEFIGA

SMILES | IC50
C=C(F)C(=O)N1CCN(c2ncc3ncnc(Nc4ccc(Oc5ccc6c(c5)nnn6C)c(C)c4)c3n2)C[C@H]1COC [Compound 211, (S)-2-fluoro-1-(2-(methoxymethyl)-4-(8-((3-methyl-4-((1-methyl-1H-benzo[d][1,2,3]triazol-5-yl)oxy)phenyl)amino)pyrimido [5,4-d]pyrimidin-2-yl)piperazin-1-yl) prop-2-en-1-one] | ≥ 1000 nM
C=CC(=O)N1CCN(c2ccc3ncnc(Nc4ccc(Oc5ccc6c(c5)nnn6C)c(C)c4)c3n2)C[C@@H]1COC [Compound 78, (R)-1-(2-(methoxymethyl)-4-(4-((3-methyl-4-((1-methyl-1H-benzo[d][1,2,3]triazol-5-yl)oxy)phenyl)amino)pyrido[3,2-d]pyrimidin-6-yl)piperazin-1-yl)prop-2-en-1-one] | 100 to 500 nM
C=CC(=O)N[C@@H]1C[C@@H](C)CN(c2ccc3ncnc(Nc4ccc(Oc5ccc6c(c5)nnn6C)c(C)c4F)c3n2)C1 (single isomer, unassigned) [Compound 338] | 100 to 500 nM
C=CC(=O)N[C@@H]1CCCN(c2ncc3ncnc(Nc4ccc(Oc5ccc6c(c5)nnn6C)c(C)c4F)c3n2)CC1 [Compound 172, (R)-N-(1-(8-((2-fluoro-3-methyl-4-((1-methyl-1H-benzo[d][1,2,3]triazol-5-yl)oxy)phenyl)amino)pyrimido[5,4-d]pyrimidin-2-yl)azepan-4-yl)acrylamide] | ≥ 1000 nM
C=CC(=O)N1CCN(c2ccc3ncnc(Nc4ccc(Oc5ccc6c(c5)nnn6C)c(C)c4)c3n2)CC1CF (centres unmarked) [Compound 313, 1-(2-(fluoromethyl)-4-(4-((3-methyl-4-((1-methyl-1H-benzo[d][1,2,3]triazol-5-yl)oxy)phenyl)amino)pyrido[3,2-d]pyrimidin-6-yl)piperazin-1-yl)prop-2-en-1-one] | < 50 nM
C=CC(=O)N1CC2CCC1CN2c1ccc2ncnc(Nc3ccc(Oc4ccc5c(c4)nnn5C)c(C)c3)c2n1 (centres unmarked) [Compound 82, 1-(5-(4-((3-methyl-4-((1-methyl-1H-benzo[d][1,2,3]triazol-5-yl)oxy)phenyl)amino)pyrido[3,2-d]pyrimidin-6-yl)-2,5-diazabicyclo[2.2.2]octan-2-yl)prop-2-en-1-one] | < 50 nM
C=CC(=O)N(C)C1C2CN(c3ncc4ncnc(Nc5ccc(Oc6cc(F)c7c(c6)nnn7C)c(C)c5F)c4n3)CC21 (centres unmarked) [Compound 68, N-(3-(8-((2-fluoro-4-((7-fluoro-1-methyl-1H-benzo[d][1,2,3]triazol-5-yl)oxy)-3-methylphenyl)amino)pyrimido[5,4-d]pyrimidin-2-yl)-3-azabicyclo[3.1.0]hexan-6-yl)-N-methylacrylamide] | 50 to 100 nM
C=CC(=O)N1CCN(c2ncc3ncnc(Nc4ccc(Oc5cc(F)c6c(c5)nnn6C)c(C)c4)c3n2)C[C@H]1C [Compound 171, (R)-1-(4-(8-((4-((7-fluoro-1-methyl-1H-benzo[d][1,2,3]triazol-5-yl)oxy)-3-methylphenyl)amino)pyrimido[5,4-d]pyrimidin-2-y1)-2-methylpiperazin-1-yl)prop-2-en-1-one] | 50 to 100 nM
C=C(F)C(=O)N1C2CCC1CN(c1ncc3ncnc(Nc4ccc(Oc5ccc6c(c5)nnn6C)c(C)c4)c3n1)C2 [Compound 51, 2-fluoro-1-(3-(8-((3-methyl-4-((1-methyl-1H-benzo[d][1,2,3]triazol-5-yl)oxy)phenyl)amino)pyrimido [5,4-d]pyrimidin-2-yl)-3,8-diazabicyclo [3.2.1]octan-8-yl)prop-2-en-1-one 2,2,2-trifluoroacetate] | ≥ 1000 nM
C=CC(=O)N[C@H]1CCCN(c2ncc3ncnc(Nc4ccc(Oc5ccc6c(c5)nnn6C)c(C)c4)c3n2)C1 [Compound 126, (S)-N-(1-(8-((3-methyl-4-((1-methyl-1H-benzo[d][1,2,3]triazol-5-yl)oxy)phenyl)amino)pyrimido [5,4-d]pyrimidin-2-yl)piperidin-3-yl)acrylamide] | 500 to 1000 nM
C=CC(=O)N1CCN(c2ncc3ncnc(Nc4ccc(Oc5cnn6ccnc6c5)c(C)c4)c3n2)CC1 [Compound 234, 1-(4-(8-((4-(imidazo[1,2-b]pyridazin-7-yloxy)-3-methylphenyl)amino)pyrimido[5,4-d]pyrimidin-2-yl)piperazin-1-yl)prop-2-en-1-one] | < 50 nM
C=CC(=O)N1C[C@@H](N(C)c2ccc3ncnc(Nc4ccc(Oc5ccc6c(c5)nnn6C)c(C)c4F)c3n2)CC[C@@H]1C [Compound 267, 1-((2S,5S)-5-((4-((2-fluoro-3-methyl-4-((1-methyl-1H-benzo[d][1,2,3]triazol-5-yl)oxy)phenyl)amino)pyrido[3,2-d]pyrimidin-6-yl)(methyl)amino)-2-methylpiperidin-1-yl)prop-2-en-1-one] | ≥ 1000 nM
Cc1cc(Nc2ncnc3ccc(N4CCN(C(=O)/C=C/CF)[C@H](C)C4)nc23)ccc1Oc1ccc2c(c1)nnn2C [Compound 364, (R,E)-4-fluoro-1-(2-methyl-4-(4-((3-methyl-4-((1-methyl-1H-benzo[d][1,2,3]triazol-5-yl)oxy)phenyl)amino)pyrido[3,2-d]pyrimidin-6-yl)piperazin-1-yl)but-2-en-1-one] | 100 to 500 nM
C=CC(=O)N1CCC(Oc2ncc3ncnc(Nc4ccc(Oc5ccc6c(c5)nnn6C)c(C)c4)c3n2)CC1 [Compound 390, 1-(4-((8-((3-methyl-4-((1-methyl-1H-benzo[d][1,2,3]triazol-5-yl)oxy)phenyl)amino)pyrimido[5,4-d]pyrimidin-2-yl)oxy)piperidin-1-yl)prop-2-en-1-one] | < 50 nM
C=C(F)C(=O)N1CCN(c2ncc3ncnc(Nc4ccc(Oc5ccc6c(c5)nnn6C)c(C)c4)c3n2)C[C@@H]1COC [Compound 193, (R)-2-fluoro-1-(2-(methoxymethyl)-4-(8-((3-methyl-4-((1-methyl-1H-benzo[d][1,2,3]triazol-5-yl)oxy)phenyl)amino)pyrimido[5,4-d]pyrimidin-2-yl)piperazin-1-yl)prop-2-en-1-one] | ≥ 1000 nM
C=CC(=O)N1CCN(c2ncc3ncnc(Nc4ccc(Oc5ccc6c(c5)nnn6C(F)(F)F)c(C)c4)c3n2)C[C@H]1C [Compound 195, (R)-1-(2-methyl-4-(8-((3-methyl-4-((1-(trifluoromethyl)-1H-benzo[d][1,2,3]triazol-5-yl)oxy)phenyl)amino)pyrimido[5,4-d]pyrimidin-2-yl)piperazin-1-yl)prop-2-en-1-one] | 100 to 500 nM
C=CC(=O)N1CC(N(C)c2ncc3ncnc(Nc4ccc(Oc5ccc6c(c5)nnn6C)c(C)c4F)c3n2)C1 [Compound 69, 1-(3-((8-((2-fluoro-3-methyl-4-((1-methyl-1H-benzo[d][1,2,3]triazol-5-yl)oxy)phenyl)amino)pyrimido[5,4-d]pyrimidin-2-yl)(methyl)amino)azetidin-1-yl)prop-2-en-1-one] | < 50 nM
C=CC(=O)N1CCN(c2ncc3ncnc(Nc4ccc(Oc5cc(F)c6c(c5)ncn6C)c(C)c4)c3n2)C[C@H]1CC [Compound 163, (R)-1-(2-ethyl-4-(8-((4-((7-fluoro-1-methyl-1H-benzo[d]imidazol-5-yl)oxy)-3-methylphenyl)amino)pyrimido[5,4-d]pyrimidin-2-yl)piperazin-1-yl)prop-2-en-1-one] | 100 to 500 nM
C=CC(=O)N1CCN(c2ccc3ncnc(Nc4cc(C)c(Oc5ccc6c(c5)nnn6C)c(F)c4)c3n2)C[C@H]1C [Compound 255, (R)-1-(4-(4-((3-fluoro-5-methyl-4-((1-methyl-1H-benzo[d][1,2,3]triazol-5-yl)oxy)phenyl)amino)pyrido[3,2-d]pyrimidin-6-yl)-2-methylpiperazin-1-yl)prop-2-en-1-one] | 50 to 100 nM
C=CC(=O)N1CCN(c2ccc3ncnc(Nc4ccc(Oc5cnc6ccnn6c5)c(C)c4)c3n2)CC1 [Compound 319, 1-(4-(4-((3-methyl-4-(pyrazolo[1,5-a]pyrimidin-6-yloxy)phenyl)amino)pyrido[3,2-d]pyrimidin-6-yl)piperazin-1-yl)prop-2-en-1-one] | < 50 nM
C=CC(=O)N[C@@H]1CN(c2ncc3ncnc(Nc4ccc(Oc5ccc6c(c5)nnn6C)c(C)c4F)c3n2)CC[C@H]1C [Compound 230, N-((3S,4R)-1-(8-((2-fluoro-3-methyl-4-((1-methyl-1H-benzo[d][1,2,3]triazol-5-yl)oxy)phenyl)amino)pyrimido[5,4-d]pyrimidin-2-yl)-4-methylpiperidin-3-yl)acrylamide] | 100 to 500 nM
C=CC(=O)N[C@H]1CCCN(c2ccc3ncnc(Nc4ccc(Oc5ccc6c(c5)nnn6C)c(C)c4F)c3n2)CC1 [Compound 282, (S)-N-(1-(4-((2-fluoro-3-methyl-4-((1-methyl-1H-benzo[d][1,2,3]triazol-5-yl)oxy)phenyl)amino)pyrido[3,2-d]pyrimidin-6-yl)azepan-4-yl)acrylamide] | 500 to 1000 nM
C=CC(=O)N1CC2CCC(C1)N2c1ncc2ncnc(Nc3ccc(Oc4ccc5c(c4)nnn5C)c(C)c3)c2n1 [Compound 46, 1-(8-(8-((3-methyl-4-((1-methyl-1H-benzo[d][1,2,3]triazol-5-yl)oxy)phenyl)amino)pyrimido[5,4-d]pyrimidin-2-yl)-3,8-diazabicyclo[3.2.1]octan-3-yl)prop-2-en-1-one] | < 50 nM
Cc1cc(Nc2ncnc3cnc(N4CCN(C(=O)/C=C/C(F)(F)F)CC4)nc23)ccc1Oc1ccc2c(c1)nnn2C [Compound 217, 4,4,4-trifluoro-1-(4-(8-((3-methyl-4-((1-methyl-1H-benzo[d][1,2,3]triazol-5-yl)oxy)phenyl)amino)pyrimido [5,4-d]pyrimidin-2-yl)piperazin-1-yl) but-2-en-1-one] | < 50 nM
C=CC(=O)N1CCN(c2ccc3ncnc(Nc4ccc(Oc5ccc6c(c5)nnn6C(F)F)c(C)c4F)c3n2)CC1(C)C [Compound 322, 1-(4-(4-((4-((1-(difluoromethyl)-1H-benzo[d][1,2,3]triazol-5-yl)oxy)-2-fluoro-3-methylphenyl)amino)pyrido[3,2-d]pyrimidin-6-yl)-2,2-dimethylpiperazin-1-yl)prop-2-en-1-one] | 500 to 1000 nM
C=CC(=O)N1CCN(c2ccc3ncnc(Nc4ccc(Oc5ccc6c(c5)nnn6C)c(C)c4)c3n2)CC1 [Compound 92, 1-(4-(4-((3-methyl-4-((1-methyl-1H-benzo[d][1,2,3]triazol-5-yl)oxy)phenyl)amino)pyrido[3,2-d]pyrimidin-6-yl)piperazin-1-yl)prop-2-en-1-one] | 50 to 100 nM
